Here are results for 3 molecules from US10815235B2, “Polycyclic compounds and uses thereof” (priority 2017, dated 2020).

Test [1] concerns the target T1, Serotonin 5-HT1A receptor (Homo sapiens, UniProt P08908).
T1 sequence (P08908 1-422): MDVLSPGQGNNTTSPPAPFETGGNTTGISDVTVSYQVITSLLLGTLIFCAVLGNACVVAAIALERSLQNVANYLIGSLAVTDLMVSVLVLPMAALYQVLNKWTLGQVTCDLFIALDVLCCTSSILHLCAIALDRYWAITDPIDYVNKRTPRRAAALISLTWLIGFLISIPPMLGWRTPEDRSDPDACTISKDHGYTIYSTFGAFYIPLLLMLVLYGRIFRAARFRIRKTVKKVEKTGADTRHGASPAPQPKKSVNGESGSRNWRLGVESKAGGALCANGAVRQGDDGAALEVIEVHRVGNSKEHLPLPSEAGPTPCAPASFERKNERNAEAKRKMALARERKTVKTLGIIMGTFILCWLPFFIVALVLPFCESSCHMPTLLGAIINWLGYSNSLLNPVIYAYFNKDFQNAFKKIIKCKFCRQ
The experiment in a line: GTPγS Scintillation Proximity Assay, agonist and antagonist mode. It counts as biochemical. The procedure:
(§1) Antagonist and agonist activities were determined using a GTPγS Scintillation Proximity Assay. The assay was prepared as follows: Membrane extracts were prepared from recombinant human Dopamine D2L, D3; Serotonin 5-HT1A, 5-HT1B, 5-HT1D and 5-HT1F receptors.
(§2) Samples were tested by proprietary biological assays by Ogeda S. A., Euroscreen FAST Business Unit, Rue Adrienne Bolland, 47 B-6041 Gosselies, Belgium. Each protein assay was prepared using the following conditions.
5-HT1A • Assay buffer: 20 mM HEPES pH 7.4; 100 mM NaCl, 10 μg/ml saponin, 3 mM MgCl2, 0.1% protease-free BSA; • Membranes: recombinant 5-HT1A membrane extracts thawed on ice and diluted in assay buffer to give 1 mg/ml (10 μg/well) and kept on ice; • GDP: diluted in assay buffer to give a 3 μM final assay concentration; • Beads: PVT-WGA (Perkin Elmer, RPNQ001), diluted in assay buffer at 50 mg/ml (0.5 mg/well); and • GTPγ^35S: (PerkinElmer NEG030X), diluted in assay buffer to give 0.1 nM;
Membranes were mixed with GDP (volume:volume 1:1) and incubated for at least 15 min on ice. In parallel, GTPγ[^35S] is mixed with the beads (volume:volume 1:1) just before starting the reaction.
To determine agonist activity, the following reagents were added in the wells of an Optiplate (Perkin Elmer): 50 μL of test or reference ligand, 10 μL of assay buffer, 20 μl of the membranes:GDP mix, and 20 μL of the GTPγ[^35S]:beads mix. EC50 values were used to determine whether a compound acted as an agonist.
To determine antagonist activity, the following reagents were added in the wells of an Optiplate (Perkin Elmer): 50 μL of test or reference ligand, 20 μL of the membranes:GDP mix, then the plate is incubated 15 minutes at room temperature. After incubation, 10 μL of reference agonist at historical EC80 (final concentration) was added, followed by 20 μL of the GTPγ[^35S]:beads mix.
The plates were covered with a top seal, mixed on an orbital shaker for 2 min, and then incubated for 1 hour at room temperature. Then the plates were centrifuged for 10 min at 2000 rpm, incubated at room temperature 1 hour and counted for 1 min/well with a PerkinElmer TopCount reader. IC50 values were used to determine whether a compound acted as an antagonist.

Test [2] has as its target T2, Serotonin 5-HT1F receptor (Homo sapiens, UniProt P30939).
T2 sequence (P30939 1-366): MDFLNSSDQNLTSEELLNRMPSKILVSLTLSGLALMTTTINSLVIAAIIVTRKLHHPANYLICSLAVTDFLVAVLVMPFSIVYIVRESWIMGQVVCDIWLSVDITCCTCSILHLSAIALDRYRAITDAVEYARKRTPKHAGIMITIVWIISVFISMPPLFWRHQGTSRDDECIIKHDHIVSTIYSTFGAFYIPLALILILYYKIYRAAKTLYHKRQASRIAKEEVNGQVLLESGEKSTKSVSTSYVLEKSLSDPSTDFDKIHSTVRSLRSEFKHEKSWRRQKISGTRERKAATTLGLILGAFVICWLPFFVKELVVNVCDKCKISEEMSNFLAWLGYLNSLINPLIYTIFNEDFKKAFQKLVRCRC
The test is described as above. It counts as biochemical. As for the experimental part: as §1, §2
5-HT1F • Assay buffer: 20 mM HEPES pH 7.4; 100 mM NaCl, 10 μg/ml saponin, 1 mM MgCl2; • Membranes: recombinant 5-HT1F membrane extracts thawed on ice and diluted in assay buffer to give 0.5 mg/ml (5 μg/well) and kept on ice; • GDP: diluted in assay buffer to give a 3 μM final assay concentration; • Beads: PVT-WGA (Perkin Elmer, RPNQ001), diluted in assay buffer at 50 mg/ml (0.5 mg/well); and • GTPγ^35S: (PerkinElmer NEG030X), diluted in assay buffer to give 0.1 nM.
Membranes were mixed with GDP (volume:volume 1:1) and incubated for at least 15 min on ice. […]
The plates were covered with a top seal, mixed on an orbital shaker for 2 min, and then incubated for 1 hour at room temperature. Then the plates were centrifuged for 10 min at 2000 rpm, incubated at room temperature 1 hour and counted for 1 min/well with a PerkinElmer TopCount reader. […]

Where [3] appears, read: antagonist mode, bound stated, read-out: IC50 value for the Serotonin 5-HT1A receptor.
Where [4] appears, read: membrane extracts, vs reference agonist at EC80, read-out: Antagonist Activity (IC50), 5-HT1A.

Like-named read-outs stand apart in the source and are kept apart here. A value given as a limit tells only on which side of the number the result lay.

In the case of `CCN(CC)C(=O)N[C@H]1C[C@@H]2c3cccc4[nH]c(Br)c(c34)C[C@H]2N(C)C1` [Compound A8H, 3-((6aR,9S, 10aR)-5-bromo-7-methyl-4,6,6a,7,8,9,10,10a-octahydroindolo[4,3-fg]quinolin-9-yl)-1,1-diethylurea], the EC50 was below 1000 nM in test [1] (agonist mode, bound stated, read-out: EC50 value for the Serotonin 5-HT1A receptor) and 31 nM in test [1] (membrane extracts, read-out: Agonist Activity (EC50), 5-HT1A). The 50% inhibitory concentration (IC50) was below 1000 nM in test [1] (setting [3]) and 160 nM in test [1] (setting [4]).

As for `CCN(CC(F)(F)F)C(=O)N[C@H]1C[C@@H]2c3cccc4[nH]c(C5CC5)c(c34)C[C@H]2N(C)C1` [Compound A17H, 3-((6aR,9S,10aR)-5-cyclopropyl-7-methyl-4,6,6a,7,8,9,10,10a-octahydroindolo[4,3-fg]quinolin-9-yl)-1-ethyl-1-(2,2,2-trifluoroethyl)urea], the IC50 in test [1] (setting [3]) was below 1000 nM; in test [1] (setting [4]), 590 nM.

In the case of `CC[C@@H](CO)NC(=O)[C@@H]1C[C@@H]2c3cccc4c3c(c(C3CC3)n4C)C[C@H]2N(C)C1` [Compound D13H, (6aR,9R,10aR)-5-cyclopropyl-N—((S)-1-hydroxybutan-2-yl)-4,7-dimethyl-4,6,6a,7,8,9,10,10a-octahydroindolo[4,3-fg]quinoline-9-carboxamide], the half-maximal effective concentration (EC50) was below 1000 nM in test [2] (agonist mode, bound stated, read-out: EC50 value for the Serotonin 5-HT1F receptor) and 260 nM in test [2] (membrane extracts, read-out: Agonist Activity (EC50), 5-HT1F).
